Read-outs that look alike come from different tables or passages of the source.

As usually defined, the IC50 is the concentration that inhibits the measured activity by half.

For the assay, the target named is T1, EC-LigA (Escherichia coli DNA ligase LigA) (Escherichia coli, UniProt P15042).
T1 construct: purchased NEB
Description: in vitro ligase assay (nicked DNA substrate, denaturing PAGE). The conditions noted are these: for inhibition of EC-LigA (result in words): concentrations up to 3333 µM; for extent of inhibition reached (complete or partial): highest concentration tested 3333 µM; for extent of ligation in the presence of small molecule: at all small molecule concentrations tested (up to 3333 µM), about 50% ligation without small molecule. The class given is biochemical. As to the method: A 50 bp nicked DNA substrate was designed and prepared by annealing a 5′ hexachlorofluorescein (HEX) labelled, 3′ hydroxyl 20 nt single stranded oligonucleotide (20Top) and an unlabelled, 5′ phosphate 30 nt single stranded oligonucleotide (30Top) to a complementary unlabelled 50 nt single stranded oligonucleotide (50Bot) (Figure 4A). Incubation of this nicked DNA substrate with EC-LigA in the presence of NAD^+ cofactor should lead to phosphodiester bond formation between the 3′ hydroxyl of 20Top and the 5′ phosphate of 30Top to produce a 50 bp double stranded DNA product. The ligation reaction can be evaluated by resolving the 50 nt 5′ HEX labelled single stranded DNA and the 20 nt 5′ HEX labelled 20Top single stranded DNA by denaturing polyacrylamide gel electrophoresis (PAGE). The inhibitory activity of small molecules on EC-LigA activity can then be assessed by comparing the extent of ligation (the percentage of 50 nt 5′ HEX labelled single stranded DNA produced) in the absence of small molecule to the extent of ligation in the presence of small molecule. Small molecule inhibitors of EC-LigA will reduce the percentage of 50 nt 5′ HEX labelled single stranded DNA produced.
Figure 4 In vitro screening of candidate EC-LigA small molecule inhibitors. (A) A schematic of the in vitro ligation assay. A 50 bp nicked DNA substrate was prepared by annealing a 5′ hexachlorofluorescein (HEX) labelled, 3′ hydroxyl 20 nt single stranded oligonucleotide (20Top, blue) and an unlabelled, 5′ phosphate 30 nt single stranded oligonucleotide (30Top) to a complementary unlabelled 50 nt single stranded oligonucleotide (50Bot). Subsequent ligation of 20Top and 30Top, by EC-LigA produced a 50 bp double stranded DNA product comprising 5′ HEX labelled 50 nt DNA (50Top, green) and the complementary unlabelled 50 nt DNA 50Bot. (B) Representative 10% (w/v) denaturing PAGE of in vitro ligase assays performed with 120 nM nicked DNA substrate, 30 nM EC-LigA and 26 µM NAD^+ in reaction buffer (30 mM Tris HCl, pH 8.0, 4 mM MgCl2, 1 mM DTT, and 50 µg/mL BSA) in the presence of increasing concentrations of geneticin (0–3333 µM) or chlorhexidine (0–3333 µM) at room temperature for 5 min. Blue and green triangles mark the HEX labelled 20Top (substrate) and 50Top (product) DNA species, respectively. Gels were quantitated using ImageJ and the mean percentage 50Top DNA product was plotted against small molecule concentration. Error bars represent the standard error of the mean for a minimum of two experimental repeats. […] (D) As for (B) but for increasing concentrations of 5-azacytidine (0–3333 µM) or imidazo[1,2-a]pyridine-7-C (0–3333 µM). (E) As for (B) but for increasing concentrations of bestatin (0–3333 µM) or 2-(aminomethyl)imidazole (0–3333 µM).
Quenched reactions were heat-denatured at 100°C for 3 min and placed on ice. Reaction products were resolved by 10% (w/v) denaturing PAGE (10% (w/v) polyacrylamide gels containing 20% formamide and 7 M urea). Inclusion of formamide in the polyacrylamide gels aided maintenance of single-stranded species during electrophoresis. Gels were visualised using a fluorescence-imager (Fuji FLA-5000) using an excitation wavelength of 532 nm. Digitised images were quantitated using ImageJ software (NIH) and the percentage of 20Top (substrate) and 50Top (product) in each lane was calculated. Data were fit to a three-parameter IC50 inhibition function: y=Ymax/1+(x/IC50)^n
In this equation, y is the percentage of 50Top (product) at small molecule inhibitor concentration x; Ymax is the theoretical maximal percentage of 50Top (product) that can be formed, IC50 is the concentration of small molecule inhibitor at half Ymax, and n is the Hill slope factor.

Setting [1] is: 120 nM nicked DNA, 30 nM EC-LigA, 26 µM NAD+, room temperature, 5 min, three-parameter fit, read-out: IC50.

T1 sequence (P15042 whole entry): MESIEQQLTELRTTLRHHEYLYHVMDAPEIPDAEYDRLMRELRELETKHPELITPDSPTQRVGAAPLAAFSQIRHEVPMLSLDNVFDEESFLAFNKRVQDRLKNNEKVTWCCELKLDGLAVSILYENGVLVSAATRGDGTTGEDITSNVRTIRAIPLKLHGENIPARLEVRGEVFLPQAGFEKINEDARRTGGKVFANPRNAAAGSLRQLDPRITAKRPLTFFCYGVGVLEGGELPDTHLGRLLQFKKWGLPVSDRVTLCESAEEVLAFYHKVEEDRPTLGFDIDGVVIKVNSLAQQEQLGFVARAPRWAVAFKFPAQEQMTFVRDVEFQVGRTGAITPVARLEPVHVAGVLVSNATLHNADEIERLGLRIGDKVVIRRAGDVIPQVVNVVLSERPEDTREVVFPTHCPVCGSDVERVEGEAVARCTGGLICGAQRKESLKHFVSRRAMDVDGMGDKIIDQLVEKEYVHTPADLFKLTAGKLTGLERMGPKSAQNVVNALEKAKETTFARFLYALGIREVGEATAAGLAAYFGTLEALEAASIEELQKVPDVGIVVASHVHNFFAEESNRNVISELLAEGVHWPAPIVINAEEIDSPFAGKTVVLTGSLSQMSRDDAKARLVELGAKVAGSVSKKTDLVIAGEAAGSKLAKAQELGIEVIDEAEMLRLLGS

In the case of `NCc1ncc[nH]1` [2-(aminomethyl)imidazole], the “inhibition of EC-LigA (result in words)” value is listed as “inhibited the ligation reaction in a dose-dependent manner” and the “extent of inhibition reached (complete or partial)” value (“extent of inhibition reached” below) is “inhibition was only partial”. Besides, the 50% inhibitory concentration (IC50) under setting [1] was determined as 872 ± 248 µM. The IC50 (apparent IC50, read-out: IC50) worked out at 870 µM.

For `Nc1ncn([C@@H]2O[C@H](CO)[C@@H](O)[C@H]2O)c(=O)n1` [5-azacytidine, reference compound], the “extent of ligation in the presence of small molecule” value (from here on “extent of ligation”) is reported as “approximately 50%” and the “inhibition of EC-LigA (result in words)” value was “do not inhibit EC-LigA”.

For `[H]/N=C(\N/C(=N/[H])NCCCCCCNC(=N)NC(=N)Nc1ccc(Cl)cc1)Nc1ccc(Cl)cc1` [Chlorhexidine, chlorhexidine, reference compound], the “inhibition of EC-LigA (result in words)” value is “inhibited the ligation reaction in a dose-dependent manner” and the “extent of inhibition reached” value is on record as “Complete inhibition of ligation was observed”. Moreover, the IC50 under setting [1] was 11 µM.

Turning to `CN[C@@H]1[C@@H](O)[C@@H](O[C@@H]2[C@@H](O)[C@H](O[C@H]3O[C@H]([C@@H](C)O)[C@@H](O)[C@H](O)[C@H]3N)[C@@H](N)C[C@H]2N)OC[C@]1(C)O` [Geneticin, geneticin, reference compound], the “inhibition of EC-LigA (result in words)” value is “inhibited the ligation reaction in a dose-dependent manner” and the “extent of inhibition reached” value is listed as “Complete inhibition of ligation was observed”. Also, the IC50 under setting [1] turned out to be 2600 ± 85.4 µM.

With `N[C@@H](CCC(=O)N[C@@H](CS)C(=O)NCC(=O)O)C(=O)O` [Glutathione, glutathione], the “inhibition of EC-LigA (result in words)” value is “inhibited the ligation reaction in a dose-dependent manner” and the “extent of inhibition reached” value was “Complete inhibition of ligation was observed”. In addition, where the note is “IC50, 120 nM nicked DNA, 30 nM EC-LigA, 26 µM NAD+, room temperature, 5 min, three-parameter fit”, it took 1523 ± 10.1 µM to reach half-maximal inhibition (IC50). The 50% inhibitory concentration (IC50) (IC50, as stated in the text, apparent IC50) was 1520 µM.

On to `O=C(NCNC(=O)NC1C(=O)NC(=O)N1CO)NC1C(=O)NC(=O)N1CO` (centres unmarked) [Imidazolidinyl urea, imidazolidinyl urea], for which the “inhibition of EC-LigA (result in words)” value was “inhibited the ligation reaction in a dose-dependent manner” and the “extent of inhibition reached” value is on record as “Complete inhibition of ligation was observed”. For the same molecule, under setting [1], the IC50 was determined as 38.5 µM.

As to `CC(C)C[C@H](NC(=O)[C@@H](O)[C@H](N)Cc1ccccc1)C(=O)O` [bestatin, reference compound], the “extent of ligation” value is on record as “approximately 50%” and the “inhibition of EC-LigA (result in words)” value is recorded as “do not inhibit EC-LigA”.

In the case of `O=C(O)c1ccn2ccnc2c1` [imidazo[1,2-a]pyridine-7-C, imidazo[1,2-a]pyridine-7-carboxylic acid], the “extent of ligation” value was “approximately 50%” and the “inhibition of EC-LigA (result in words)” value is “do not inhibit EC-LigA”.

For the origin of these results see paper PMC8123306, “Identification of Novel Inhibitors of Escherichia coli DNA Ligase (LigA)” (Molecules, 2021).
